The source of these data is US20210252009A1, “COMPOSITION COMPRISING FLT3 INHIBITOR AS EFFECTIVE INGREDIENT FOR INHIBITING DRUG RESISTANCE IN CHRONIC MYELOGENOUS LEUKEMIA” (INDUSTRY-ACADEMIC COOPERATION FOUNDATION, YONSEI UNIVERSITY, priority 2018, published 2021).

Test [1] concerns FLT3-transformed K562 cells. As to the kind of experiment: MTT assay, inhibitors against FLT3 subfactors co-treated with imatinib. Format: cell-based. The settings on record: for Apoptotic effect and drug tolerance (MTT) when co-treated with imatinib: imatinib 1 μM plus inhibitor at three concentrations, 4 days, FIGS. 9a-9e; for Apoptotic effect and drug tolerance when JAK, STAT3, TAZ, TEAD and CD36 are inhibited: summary statement in the description, treatment conditions not given. As to the method: AZD1480 (Selleckem, Cat. No. S2162) was used as a JAK inhibitor, C188-9 (Selleckem, Cat. No. S8605) was used as a STAT3 inhibitor, verteporfin (Selleckem, Cat. No. S1786) was used as a TAZ inhibitor, flufenamic acid (Selleckem, Cat. No. S4268) was used as a TEAD inhibitor, and sulfo-N-succinimidyl oleate (Cayman, Cat. No. 11211) was used as a CD36 inhibitor. […] After treating with each inhibitor for 4 days, MTT assay was conducted in the same manner as in Test Example 5 and absorbance was measured at 540 nm using a multiplate reader (FIG. 9).
(Tetrazolium assays rely on reduction of a dye to a coloured formazan, in cell work by metabolically active cells.)

Test [2] deals with wild-type (WT) K562 cells. In words: Drug tolerance test: surviving cells counted after 17 days of anticancer drug treatment. The settings on record: 1 μM drug. Format: cell-based.
The subject of test [3] is FLT3-transformed K562 cells. Described as above. Format: cell-based. The settings on record: K562 FLT3, 1 μM drug. How it is done: Drug tolerance was tested using FLT3-transformed K562 cells (ATCC, CCL-243) mimicking the blast crisis of chronic myelogenous leukemia.
After administering three anticancer drugs against chronic myelogenous leukemia for 17 days to the FLT3-transformed K562 cells, the surviving cells were counted (Table 1).

The subject of test [4] is FLT3-transformed K562 cells having resistance to imatinib. In words: MTT assay, FLT3 inhibitors co-administered with imatinib. Format: cell-based. Conditions: 1 μM imatinib alone, 5 days. As to the method: The cells were cultured using DMEM (Hyclone) containing 10% FBS (Gibco). […] The concentration of the FLT3 inhibitor was as follows. […] 5 days later, after adding 100 μL of an MTT labeling reagent included in a cell proliferation kit (Roche) to each well for 2 hours and then treating with […] of a solubilization solution for 24 hours, absorbance was measured at a wavelength of 540 nm using a multiplate reader (FIGS. 8a-8c).

For test [5], the system named is FLT3-transformed K562 cells having resistance to three drugs (imatinib, dasatinib and nilotinib). The settings on record: single agent; FIGS. 4-7.

Take `CCCCCCCC/C=C\CCCCCCCC(=O)ON1C(=O)CC(S(=O)(=O)O)C1=O` (centres unmarked) [sulfo-N-succinimidyl oleate]: in test [1], the “Apoptotic effect and drug tolerance (MTT) when co-treated with imatinib” value is “remarkably enhanced apoptotic effect and inhibited drug tolerance”; the “Apoptotic effect and drug tolerance when JAK, STAT3, TAZ, TEAD and CD36 are inhibited” value is “apoptotic effect is enhanced remarkably and drug tolerance is inhibited”.

Turning to verteporfin, in test [1], the “Apoptotic effect and drug tolerance (MTT) when co-treated with imatinib” value is “remarkably enhanced apoptotic effect and inhibited drug tolerance”; the “Apoptotic effect and drug tolerance when JAK, STAT3, TAZ, TEAD and CD36 are inhibited” value was “apoptotic effect is enhanced remarkably and drug tolerance is inhibited”.

For `Cc1nc(Nc2ncc(C(=O)Nc3c(C)cccc3Cl)s2)cc(N2CCN(CCO)CC2)n1` [dasatinib], the Cell number is 1 × 10^5 in test [2] (Day 0); 0.8075 × 10^5 in test [2] (Day 5); 0.35 × 10^5 in test [2] (Day 9); 0.47 × 10^5 in test [2] (Day 11); 0 × 10^5 in test [2] (Day 13); 0 × 10^5 in test [2] (Day 15). Besides, the Cell number in test [2] (Day 17) is given as 0 × 10^5; in test [3] (Day 5), 1.57 × 10^5; in test [3] (Day 9), 2.87 × 10^5; in test [3] (Day 11), 2.23 × 10^5; in test [3] (Day 13), 2.26 × 10^5; in test [3] (Day 15), 1.76 × 10^5. Besides, the Cell number in test [3] (Day 17) is 9.33 × 10^5.

Take `Cc1ccc(NC(=O)c2ccc(CN3CCN(C)CC3)cc2)cc1Nc1nccc(-c2cccnc2)n1` [imatinib]: the Cell number was 1 × 10^5 in test [2] (Day 0); 0.485 × 10^5 in test [2] (Day 5); 0.058 × 10^5 in test [2] (Day 9); 0.52 × 10^5 in test [2] (Day 11); 0.175 × 10^5 in test [2] (Day 13); 0 × 10^5 in test [2] (Day 15). For the same compound, the Cell number in test [2] (Day 17) is 0 × 10^5; in test [3] (Day 0), 1 × 10^5; in test [3] (Day 5), 1.013 × 10^5; in test [3] (Day 9), 1.905 × 10^5; in test [3] (Day 11), 1.82 × 10^5; in test [3] (Day 15), 3.17 × 10^5. In addition, the Cell number in test [3] (Day 17) is 14.3 × 10^5. For the same compound, the “Killing of FLT3-overexpressed K562 cells (MTT), imatinib only” value in test [4] was “could not be killed”. Also, in test [5], the “Killing of resistant cells, treated only with the one agent” value is “hardly killed”.

As for `Cc1cn(-c2cc(NC(=O)c3ccc(C)c(Nc4nccc(-c5cccnc5)n4)c3)cc(C(F)(F)F)c2)cn1` [nilotinib], the Cell number in test [2] (Day 0) is reported as 1 × 10^5; in test [2] (Day 5), 0.9675 × 10^5; in test [2] (Day 9), 0.23 × 10^5; in test [2] (Day 11) it was 0.76 × 10^5; in test [2] (Day 13) it was 0.09 × 10^5; in test [2] (Day 15) it was 0 × 10^5. Further, the Cell number in test [2] (Day 17) is reported as 0 × 10^5; in test [3] (Day 0) it was 1 × 10^5; in test [3] (Day 5), 2.0975 × 10^5; in test [3] (Day 9) it was 1.38 × 10^5; in test [3] (Day 11) it was 2.64 × 10^5; in test [3] (Day 13) it was 2.84 × 10^5. In addition, the results for the Cell number in test [3] (Day 15) and in test [3] (Day 17) were 4.52 × 10^5 and 17.1 × 10^5, respectively. Moreover, the “Killing of resistant cells, treated only with the one agent” value in test [5] is on record as “hardly killed”.

As for `Cc1cc(Nc2nc(N[C@@H](C)c3ncc(F)cn3)ncc2Cl)n[nH]1` [AZD1480], in test [1], the “Apoptotic effect and drug tolerance (MTT) when co-treated with imatinib” value is “remarkably enhanced apoptotic effect and inhibited drug tolerance”; the “Apoptotic effect and drug tolerance when JAK, STAT3, TAZ, TEAD and CD36 are inhibited” value is “apoptotic effect is enhanced remarkably and drug tolerance is inhibited”.

Turning to `COc1ccc(S(=O)(=O)Nc2cc(-c3c(O)ccc4ccccc34)c(O)c3ccccc23)cc1` [C188-9], in test [1], the “Apoptotic effect and drug tolerance (MTT) when co-treated with imatinib” value is “remarkably enhanced apoptotic effect and inhibited drug tolerance”; the “Apoptotic effect and drug tolerance when JAK, STAT3, TAZ, TEAD and CD36 are inhibited” value is “apoptotic effect is enhanced remarkably and drug tolerance is inhibited”.

As to `O=C(O)c1ccccc1Nc1cccc(C(F)(F)F)c1` [flufenamic acid], in test [1], the “Apoptotic effect and drug tolerance (MTT) when co-treated with imatinib” value was “remarkably enhanced apoptotic effect and inhibited drug tolerance”; the “Apoptotic effect and drug tolerance when JAK, STAT3, TAZ, TEAD and CD36 are inhibited” value was “apoptotic effect is enhanced remarkably and drug tolerance is inhibited”.
